Assay results taken from paper PMC9481570, “A small molecule antagonist of SMN disrupts the interaction between SMN and RNAP II” (Nature Communications, 2022).

Assays:
[1] = target: T1, SMN Tudor domain (Homo sapiens, UniProt Q16637); assay: ITC binding to Tudor domain of SMN; details: Supplementary Figs. 2, 4 and 11a (VP-ITC); read-out: Kd, ITC binding curve, Tudor domain of SMN
T1 construct: SMN (aa 82–147); His (N, cleaved yes); made in house; host or cells: E. coli BL21 (DE3) Codon plus RIL
Description: The coding DNA fragments of following Tudor domains were cloned into pET28-MHL vector: SMN (aa 82–147), UHRF1 (aa 126–285), SMNDC1 (aa 53–130), TDRD3 (aa 554–611), SND1 (aa 650–910), TDRD2 (aa 327–420), FXR1 (aa 2–132), PHF1 (aa 28–87), SGF29 (aa 115–293), JMJD2A (aa 897–1101), 53BP1 (aa 1483–1606), SETDB1 (aa 190–410), LBR (aa 1–67), ZGPAT (aa 120–271). The coding regions of chromodomain of CBX7 (aa 8–62), PWWP domain of DNMT3A (aa 275–417), WD40 repeats of WDR5 (aa 24–334) and CW domain of ZCWPW2 (aa 21–78) were also subcloned into pET28-MHL vector to generate N-terminally His-tagged fusion protein. The MBT repeats of L3MBTL1 (aa 200–522) and L3MBTL2 (aa 170–625) were subcloned into pET28GST-LIC vector to generate N-terminally GST-His-tagged fusion protein. All the plasmids were generated by ligase independent cloning (Vazyme Biotech, C112 or ABclonal Technology, RK21020). […] The proteins were further purified by Superdex75 or Superdex200 gel-filtration column (GE Healthcare) in a buffer containing 20 mM Tris-HCl, pH 7.5, 150 mM NaCl and 1 mM DTT. For crystallization experiments, purified proteins were concentrated to 18 mg/mL for SMN, 23 mg/mL for UHRF1 and 10 mg/mL for TDRD3 in the gel-filtration buffer. All the mutations were introduced with the QuikChange II XL site-directed mutagenesis kit (Stratagene, 200522) and confirmed by DNA sequencing. Mutant proteins were also expressed in E. coli BL21 (DE3) Codon plus RIL and purified using the same procedures described above. The molecular weight of all protein samples was measured by mass spectrometry.
For the ITC measurement, the concentrated proteins were diluted into 20 mM Tris-HCl, pH 7.5, 150 mM NaCl (ITC buffer); the lyophilized compounds were dissolved in the same buffer, and the pH value was adjusted by adding 2 M NaOH or 2 M HCl. The compounds that could not be dissolved in the ITC buffer were dissolved in DMSO with the accessible highest concentration. Compound concentrations were calculated from the mass and the volume of the solvent. For the ITC assay with compound dissolved in DMSO, the protein was diluted by ITC buffer containing same final concentration of DMSO. All measurements were performed in duplicate at 25 °C, using a VP-ITC (MicroCal, Inc.), an iTC-200 (MicroCal, Inc.), or a Nano-ITC (TA, Inc.) microcalorimeter. The protein with a concentration of 50–100 μM was placed in the cell chamber, and the compounds with a concentration of 0.5–2 mM in syringe was injected in 25, 20, or 20 successive injections with a spacing of 180, 150, or 120 s for VP-ITC, iTC-200, or Nano-ITC, respectively, as previously described[30]–[32]. iTC-200 or Nano-ITC data were consistent with those from the VP-ITC instrument, based on ITC results of SMN-compound 1 detected by using all the instruments. Control experiments were performed under identical conditions to determine the heat signals that arise from injection of the compounds into the buffer. Data were fitted using the single-site binding model within the Origin software 7.0 package (MicroCal, Inc.) or the independent model within the Nano-Analyze software package (TA, Inc.).

[2] = target: T1, SMN Tudor domain; assay: Fluorescence of CCVJ-Cmpd 1 in solution on addition of SMN Tudor domain; type: binding; details: 10 μM SMN Tudor with 10 μM CCVJ-Cmpd 1, in solution
Description: Supplementary Fig. 5 Interaction between Tudor domain of SMN and CCVJ-Cmpd 1 triggers fluorescence signals. a Fluorescence signals of 10 µM SMN Tudor, 10 µM CCVJ-Cmpd 1, and mixture of 10 µM SMN Tudor with 10 µM CCVJ-Cmpd 1 were detected by fluorescence microscope (Nikon, ECLIPSE Ti-E), under the excitation of blue light. The […]
the SMN Tudor domain protein. Exposure time: 1 s. b Fluorescence signals for addition of different concentrations of the SMN Tudor domain protein to 5 µM CCVJ-Cmpd 1 detected by Infinite M1000 Pro microplate reader (Tecan) with an excitation wavelength of 440 nm and an emission wavelength of 460-600 nm. Data shown are representative of three […]

[3] = target: T2, mCherry-SMN (Homo sapiens, UniProt Q16637); assay: Fluorescence colocalization in U2OS cells, mCherry-SMN WT; type: cell-based; details: 10 μM, 24 h
T2 construct: the coding DNAs of full-length SMN, SND1 and TDRD3 were cloned into mCherry2-C1 or GFP-C1 vector; expressed in transfected cells; host or cells: U2OS
Method: (§1) U2OS cells (ATCC, HTB-96) were plated in a 35 mm FluoroDish with a 0.17 mm coverslip bottom (World Precision Instruments, FD35-100) for 12–24 h and transfected with 1.0 μg mCherry-SMN WT (wild-type) or mutant plasmids. Media was changed 4–6 h after transfection and cells were cultured for another 24 h. 10 μM CCVJ-Cmpd 1 was added for 24 h treatment. Then the treated cells were rinsed by PBS and the media replaced with phenol-free FluoroBright DMEM (Thermo Fisher, A1896701) for analysis by using Zeiss LSM880 microscopy.

[4] = test system: mCherry-SMN cage mutant (W102); assay: Fluorescence colocalization in U2OS cells, mCherry-SMN cage mutant; type: cell-based, human; details: 10 μM, 24 h, W102 mutated
Method: as §1

[5] = target: T3, SMN (Homo sapiens, UniProt Q16637); details: physiological ligand; read-out: binding affinity (Kd) to SMN; cited from earlier work
T3 construct: endogenous in cells; host or cells: U2OS
T3 sequence (Q16637 whole entry): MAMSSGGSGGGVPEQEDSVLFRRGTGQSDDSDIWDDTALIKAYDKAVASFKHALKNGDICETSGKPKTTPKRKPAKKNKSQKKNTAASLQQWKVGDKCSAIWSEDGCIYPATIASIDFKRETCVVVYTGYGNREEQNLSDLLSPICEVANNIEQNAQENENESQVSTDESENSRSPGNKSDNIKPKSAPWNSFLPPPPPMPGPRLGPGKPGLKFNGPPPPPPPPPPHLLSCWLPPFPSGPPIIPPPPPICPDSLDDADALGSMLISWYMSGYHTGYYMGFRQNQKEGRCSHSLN

T1 sequence (Q16637 82-147): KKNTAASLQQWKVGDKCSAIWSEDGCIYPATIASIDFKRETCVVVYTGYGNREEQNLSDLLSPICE
T2 sequence (Q16637 whole entry): as the sequence (Q16637 whole entry) above

Kd [1] [µM] | fluorescence signal on addition of SMN Tudor domain protein [2] | colocalization with mCherry-SMN [3] | SMILES | colocalization with mCherry-SMN cage mutant [4] | Kd [5] [µM]
22 ± 1 | enhanced | colocalized | N#C/C(=C\c1cc2c3c(c1)CCCN3CCC2)C(=O)NCCNC(=O)Cn1c2c(c(=N)c3c1CCC3)CCC2 [CCVJ-Cmpd 1] | not observed | 
 |  |  | CN=C(NC)NCCC[C@H](N)C(=O)O [symmetric dimethylarginine] |  | 476
